Measurements as given in patent publication US12448383B2, “Compounds and methods for treatment of viral infections” (priority 2022, dated 2025).
Like-named read-outs stand apart in the source and are kept apart here.

Experiments:
Plasma stability = type: in vitro ADME; set-up: unit not given here; conditions: 37° C., 2 μM substrate
Summary of the method: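 Reaction mixture was sampled at 0.05, 0.5, 1, 2, 3 and 4 hr into quench solution containing internal standard, then centrifuged and diluted with water. Remaining analyte was measured by LC-MS on a Q-Exactive using a formic acid/acetonitrile gradient, with 5 ppm mass tolerance.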

[1] = GI S9 stability - no PMSF; type: in vitro ADME; conditions: pH 7.4; human intestinal S9, PMSF-free; read-out: GIS9-HUMAN-NoPMSF T1/2
Summary of the method: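 Compounds were incubated at 2 μM with PMSF-free intestinal S9 (1 mg/mL protein) in 100 mM PBS, pH 7.4, sampling at 6 time points over 120 min. Parent disappearance and formation of the nucleoside metabolite Reference Compound A were quantified by LC-MS (Q-Exactive) using analyte/internal standard peak area ratios.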

[2] = Stability in pH7 buffered solution; type: physicochemical; conditions: pH7 phosphate buffer, 40° C., Table N2
Summary of the method: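 Compounds diluted from 1 mg/mL acetonitrile stock to 50 μg/mL in 50 mM phosphate buffer with 150 mM NaCl at pH2 or pH7, held at 40° C. for 24 hrs. UPLC sampling at 0, 3, 6, 9, 12 hrs, plus 24 hrs from oven-stored duplicate; reported as % area normalized of compound peak.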

[3] = tested on: Respiratory syncytial virus recombinant with luciferase (RSV-Luc5) in HEp-2 cells; experiment: microbe, parasite or virus in culture; type: cell-based; conditions: human respiratory syncytial virus
GI S9 stability = type: in vitro ADME; conditions: human, s9, pH 7.4
[4] = HEp-2, 72 h, read-out: RSV Hep2 EC50

Compound	STA Human Plasma 37 (Plasma stability)	half-life at 2 µM [1]	pH 7 Stability 24 h % AN [2]	logD (physchem)	EC50 ([3]; HEp-2, read-out: EC50 RSVFluc-Hep2 384 V2)	half-life at 2 µM (GI S9 stability)	EC50 [3, 4]
CC(C)OC(=O)Nc1ncnn2c([C@]3(C#N)O[C@H](COC(=O)OC(C)C)[C@@H](O)[C@H]3O)ccc12 [Compound 137, isopropyl (7-((2R,3R,4S,5R)-2-cyano-3,4-dihydroxy-5-(((isopropoxycarbonyl)oxy)methyl)tetrahydrofuran-2-yl)pyrrolo[2, i-f][1,2,4]triazin-4-yl)carbamate]	676.3	8.05 min	97 % AN	2	> 50000 nM	–	–
COC(=O)OC[C@H]1O[C@@](C#N)(c2ccc3c(N)ncnn23)[C@H](OC(C)=O)[C@@H]1OC(C)=O [Compound 128, (2R,3R,4R,5R)-2-(4-aminopyrrolo[2,1-f][1,2,4]triazin-7-yl)-2-cyano-5-(((methoxycarbonyl)oxy)methyl)tetrahydrofuran-3,4-diyl diacetate]	9.735	0.59 min	78 % AN	–	–	–	–
CC(C)(C)OC(=O)OC[C@H]1O[C@@](C#N)(c2ccc3c(N)ncnn23)[C@H](O)[C@@H]1O [Compound 46, ((2R,3S,4R,5R)-5-(4-aminopyrrolo[2,1-f][1,2,4]triazin-7-yl)-5-cyano-3,4-dihydroxytetrahydrofuran-2-yl)methyl tert-butyl carbonate]	553.13	145 min	8 % AN	–	–	439 min	2320 nM
CC(C)C(=O)O[C@H]1[C@@H](OC(=O)C(C)C)[C@](C#N)(c2ccc3c(N)ncnn23)O[C@@H]1COC(=O)OC(C)(C)C [Compound 58, (2R,3R,4R,5R)-2-(4-aminopyrrolo[2,1-f][1,2,4]triazin-7-yl)-5-(((tert-butoxycarbonyl)oxy)methyl)-2-cyanotetrahydrofuran-3,4-diyl bis(2-methylpropanoate)]	1584	1.19 min	7 % AN	–	–	–	1360 nM
CCOC(=O)OC[C@H]1O[C@@](C#N)(c2ccc3c(N)ncnn23)[C@H](O)[C@@H]1O [Compound 6, ((2R,3S,4R,5R)-5-(4-aminopyrrolo[2,1-f][1,2,4]triazin-7-yl)-5-cyano-3,4-dihydroxytetrahydrofuran-2-yl)methyl ethyl carbonate]	55.852	4.08 min	100 % AN	–	–	713 min	1120 nM
CC(C)OC(=O)OC[C@H]1O[C@@](C#N)(c2ccc3c(N)ncnn23)[C@H](OC(=O)C(C)C)[C@@H]1OC(=O)C(C)C [Compound 59, (2R,3R,4R,5R)-2-(4-aminopyrrolo[2,1-f][1,2,4]triazin-7-yl)-2-cyano-5-(((isopropoxycarbonyl)oxy)methyl)tetrahydrofuran-3,4-diyl bis(2-methylpropanoate)]	84.318	0.869 min	93 % AN	–	–	1.44 min	786 nM
CC(C)(OC(=O)OC[C@H]1O[C@@](C#N)(c2ccc3c(N)ncnn23)[C@H](O)[C@@H]1O)c1ccncc1 [Compound 49, ((2R,3S,4R,5R)-5-(4-aminopyrrolo[2,1-f][1,2,4]triazin-7-yl)-5-cyano-3,4-dihydroxytetrahydrofuran-2-yl)methyl (2-(pyridin-4-yl)propan-2-yl) carbonate]	1584	522 min	94 % AN	–	–	–	> 50000 nM
CC(C)OC(=O)OC[C@H]1O[C@@](C#N)(c2ccc3c(N)ncnn23)[C@H](O)[C@@H]1O [Compound 4, [(2R,3S,4R,5R)-5-(4-aminopyrrolo[2,1-f][1,2,4]triazin-7-yl)-5-cyano-3,4-dihydroay-tetrahydrofuran-2-yl]methyl isopropyl carbonate]	107.92	0.903 min	97 % AN	–	–	253 min	606 nM
CC1(OC(=O)OC[C@H]2O[C@@](C#N)(c3ccc4c(N)ncnn34)[C@H](O)[C@@H]2O)CCCCC1 [Compound 47, ((2R,3S,4R,5R)-5-(4-aminopyrrolo[2,1-f][1,2,4]triazin-7-yl)-5-cyano-3,4-dihydroxytetrahydrofuran-2-yl)methyl (1-methylcyclohexyl) carbonate]	1584	151 min	3 % AN	–	–	–	2330 nM
CCOC(=O)OC[C@H]1O[C@@](C#N)(c2ccc3c(N)ncnn23)[C@H](OC(C)=O)[C@@H]1OC(C)=O [Compound 129, (2R,3R,4R,5R)-2-(4-aminopyrrolo[2,1-f][1,2,4]triazin-7-yl)-2-cyano-5-(((ethoxycarbonyl)oxy)methyl)tetrahydrofuran-3,4-diyl diacetate]	3	0.623 min	78 % AN	–	–	–	–
CC(=O)O[C@H]1[C@@H](OC(C)=O)[C@](C#N)(c2ccc3c(N)ncnn23)O[C@@H]1COC(=O)OC(C)C [Compound 65, (2R,3R,4R,5R)-2-(4-aminopyrrolo[2,1-f][1,2,4]triazin-7-yl)-2-cyano-5-(((isopropoxycarbonyl)oxy)methyl)tetrahydrofuran-3,4-diyl diacetate]	14.9	0.621 min	80 % AN	–	–	–	1080 nM
CC12CCC(C1)C(C)(C)C2OC(=O)OC[C@H]1O[C@@](C#N)(c2ccc3c(N)ncnn23)[C@H](O)[C@@H]1O (mixture of isomers) [Compound 48, ((2R,3S,4R,5R)-5-(4-aminopyrrolo[2,1-f][1,2,4]triazin-7-yl)-5-cyano-3,4-dihydroxytetrahydrofuran-2-yl)methyl (1,3,3-trimethylbicyclo[2.2.1]heptan-2-yl) carbonate]	1584	10.1 min	99 % AN	–	–	–	2350 nM
CC1(C)[C@@H]2CC[C@@]1(C)[C@@H](OC(=O)OC[C@H]1O[C@@](C#N)(c3ccc4c(N)ncnn34)[C@H](O)[C@@H]1O)C2 [Compound 51, ((2R,3S,4R,5R)-5-(4-aminopyrrolo[2,1-f][1,2,4]triazin-7-yl)-5-cyano-3,4-dihydroxytetrahydrofuran-2-yl)methyl ((1R,2S,4R)-1,7,7-trimethylbicyclo[2.2.1]heptan-2-yl) carbonate]	1366.8	11 min	97 % AN	–	–	–	2140 nM
